What was measured:
[1] = clinical double blind test as an antalgic agent; type: in vivo; conditions: 41 patients, 400 mg per day, tablets, 20 days
Procedure: The compound of Example 1 has been tested clinically as an antalgic agent on 41 patients. A double blind test was carried out, using placebos and a dose of 400 mg per day of the active compound, administered as tablets.

[2] = kidney troubles / tolerance; type: in vivo; conditions: footnote (a), in connection with ED50 mice per os
antalgic activity = experiment: ED50 mice per os antalgic activity; type: in vivo; conditions: Mus musculus, po
[3] = tested on: cramping induced by phenylbenzoquinone; experiment: antalgic activity: percentage inhibition of cramping induced by phenylbenzoquinone, mice i.p.; type: in vivo; conditions: dose one tenth of LD-50 mice i.p., over 5 minutes, phenylbenzoquinone 0.02% i.p.
Procedure: The antalgic activity of the compounds of formula I was determined by measuring the cramping induced by phenylbenzoquinone, as described by Siegmund et al, Proc. Soc. Exp. Biol. Med. ([…]) 95, 729. A painful reaction, characterized by twisting movements and elongation of the abdomen, with scraping of the rear paws, was introduced by the intraperitoneal administration of a 0.02% w/v solution of phenyl-benzoquinone in […] at a rate of 0.5 ml/20 g body weight. The activity was measured by the percentage inhibition in the number of painful symptons over 5 minutes.

[4] = LD50 mice per os (acute toxicity); conditions: mouse, in vivo, po
[5] = LD-50 mice i.p. (acute toxicity); conditions: mouse, in vivo, ip
LD0 rat (acute toxicity) = type: in vivo

Structure (SMILES): CC(C)(Oc1cccc(C(=O)c2ccccc2)c1)C(=O)O [Example 1, 2-(3-benzoyl)-phenoxy-2-methylpropionic acid]
- tolerance of the product ([1]; double blind): excellent
- activity good, cases ([1]; double blind, patients who had received the active compound): 80%
- relief of symptoms ([1]; patients who had received the active compound): the symptoms had been relieved
- kidney troubles [2]: without kidney troubles
- ED50 (antalgic activity): 35 mg/kg
- Percentage of diminution of cramping, Tested compound [3]: 95%
- LD50 [4]: 350 mg/kg
- LD50 [5]: 350 mg/kg
- KD0 rat i.p. (LD0 rat (acute toxicity); i.p.): 540 mg/kg
- LD0 rat per os (LD0 rat (acute toxicity); per os): higher than 1600 mg/kg

Structure (SMILES): Cc1ccc(C(=O)c2cccc(OC(C)(C)C(=O)O)c2)cc1C [Example 5]
- Percentage of diminution of cramping, Tested compound [3]: 100%
- LD50 [5]: 450 mg/kg

Structure (SMILES): Cc1ccc(C(=O)c2cccc(OC(C)(C)C(=O)O)c2)c(C)c1 [Example 10]
- Percentage of diminution of cramping, Tested compound [3]: 69%
- LD50 [5]: 600 mg/kg

Structure (SMILES): O=C(OCC(O)CO)c1ccccc1Nc1ccnc2cc(Cl)ccc12 (stereo not drawn) [Glaphenine, 2,3-dihdroxypropyl N-(7-chloro-4-quinolyl)-anthranilate, reference compound]
- kidney troubles [2]: induces kidney troubles
- ED50 (antalgic activity): 25 mg/kg

Structure (SMILES): CC(Oc1cccc(C(=O)c2cccc(C(F)(F)F)c2)c1)C(=O)O (stereo not drawn) [Example 7]
- Percentage of diminution of cramping, Tested compound [3]: 61%
- LD50 [5]: 350 mg/kg

Structure (SMILES): O=C(O)COc1cccc(C(=O)c2ccc(Cl)cc2Cl)c1 [Example 9]
- Percentage of diminution of cramping, Tested compound [3]: 94%
- LD50 [5]: 350 mg/kg

Structure (SMILES): Cc1ccc(C(=O)c2cccc(OC(C)C(=O)O)c2)cc1 (stereo not drawn) [Example 13]
- Percentage of diminution of cramping, Tested compound [3]: 98%
- LD50 [5]: 700 mg/kg

Structure (SMILES): COc1ccc(C(=O)c2cccc(OC(C)(C)C(=O)O)c2)cc1 [Example 2]
- Percentage of diminution of cramping, Tested compound [3]: 97%
- LD50 [5]: 300 mg/kg

Structure (SMILES): CC(C)(Oc1cccc(C(=O)c2cccc(C(F)(F)F)c2)c1)C(=O)O [Example 3]
- Percentage of diminution of cramping, Tested compound [3]: 43%
- LD50 [5]: 300 mg/kg

Structure (SMILES): CC(Oc1cccc(C(=O)c2ccc(Cl)cc2Cl)c1)C(=O)O (stereo not drawn) [Example 8]
- Percentage of diminution of cramping, Tested compound [3]: 100%
- LD50 [5]: 800 mg/kg

Structure (SMILES): CC(Oc1cccc(C(=O)c2ccccc2)c1)C(=O)O (stereo not drawn) [Example 6]
- Percentage of diminution of cramping, Tested compound [3]: 100%
- LD50 [5]: 770 mg/kg

Structure (SMILES): Cc1ccc(C(=O)c2cccc(OC(C)(C)C(=O)O)c2)cc1 [Example 4]
- Percentage of diminution of cramping, Tested compound [3]: 66%
- LD50 [5]: 400 mg/kg

Structure (SMILES): Cc1ccc(C(=O)c2cccc(OCC(=O)O)c2)cc1 [Example 12]
- Percentage of diminution of cramping, Tested compound [3]: 92%
- LD50 [5]: 450 mg/kg

Structure (SMILES): Cc1ccccc1C(=O)c1cccc(OC(C)(C)C(=O)O)c1 [Example 11]
- Percentage of diminution of cramping, Tested compound [3]: 70%
- LD50 [5]: 600 mg/kg
